Earlier results in article PMC12648288, “Drastic Impact of Donor Substituents on Xanthenes in the PDT of Glioblastoma” (JACS Au, 2025).
Read-outs that look alike come from different tables or passages of the source. No end group written: not given here. TPC = chlorin-type photosensitizer; Ahx = NCCCCCC(=O)O

Key:
U87MG = settings: cited from earlier work; for IC50: 32 (SI list)
[1] = cited from earlier work
F98 = settings: 31 (SI list); cited from earlier work
HUVEC = tested on: HUVEC; parameters: method as in ref 16 (SI list); settings: ref 16 (SI list); cited from earlier work
[2] = in MeOH, as fraction; cited from earlier work
SNB-19 = tested on: SNB-19; parameters: method as in ref 11 (SI list); settings: ref 11 (SI list); cited from earlier work
DBTRG-05 = tested on: DBTRG-05; parameters: method as in ref 29 (SI list); settings: ref 29 (SI list); cited from earlier work
A172 = tested on: A172; parameters: method as in ref 29 (SI list); settings: ref 29 (SI list); cited from earlier work
T98G = settings: ref 28 (SI list); cited from earlier work
[3] = measured in PBS (pH 7.4), 22-32 (SI list)

## Benzoporphyrin derivative [Benzoporphyrin derivative (BPD)]
U87MG
  IC50: 13.1 µM
[1]; [3]
  Abs (nm): 692 nm

## [(Ph2phen)2Os(dpp)]2+
F98
  IC50: 86.1 µM
[1]; [3]
  Abs (nm): 650 nm

## CCCCCCOC(C)c1c(C)c2cc3nc(c4c5[nH]c(cc6nc(cc1[nH]2)C(C)=C6CC)c(C)c5C(=O)C4)C(CCC(=O)Nc1ccc(SC2=C(C=CC4=[N+](CCCCS(=O)(=O)[O-])c5ccc6ccccc6c5C4(C)C)CCCC2=CC=C2N(CCCCS(=O)(=O)[O-])c4ccc5ccccc5c4C2(C)C)cc1)C3C.[Na+] (centres unmarked) [HPPH-CD]
U87MG
  IC50: 1.63 µM
[1]; [3]
  Abs (nm): 848 nm

## TPC–Ahx–ATWLPPR: chlorin-type photosensitizer conjugated to neuropilin-1 targeting peptide (SI ref 16) ({TPC-Ahx}-ATWLPPR)
HUVEC
  IC50: 171 µM
[1]; EtOH, 16 (SI list)
  Abs (nm): 420 nm

## CN(C)c1ccc2cc3ccc(N(C)C)cc3nc2c1 [Acridine Orange]
[1]; [3]
  Abs (nm): 487 nm

## CN(C)c1ccc2nc3ccc(=[N+](C)C)cc-3sc2c1 [methylene blue]
[2]
  ΦF of reference standard: 0.23

## COc1cc(/C=C/C(=O)CC(=O)/C=C/c2ccc(O)c(OC)c2)ccc1O [Curcumin (CUR), Curcumin]
SNB-19
  IC50: 5.74 µM

## Tetrahydroporphyrin-Tetratosylat [THPTS]
DBTRG-05
  IC30: 4 µM
A172
  IC30: 10 µM
U87MG; ref 29 (SI list)
  IC30: 2 µM
[1]; [3]
  Abs (nm): 760 nm

## C=Cc1c(C)c2cc3nc(cc4nc(cc5[nH]c(cc1[nH]2)c(C)c5C(C)OC(C)c1c(C)c2cc5[nH]c(cc6nc(cc7nc(cc1[nH]2)C(C)=C7CCC(=O)[O-])C(CCC(=O)[O-])=C6C)c(C)c5C=C)C(C)=C4CCC(=O)[O-])C(CCC(=O)[O-])=C3C.[Na+].[Na+].[Na+].[Na+] (centres unmarked) [Sinoporphyrin sodium (DVDMS), Sinoporphyrin sodium]
[1]; [3]
  Abs (nm): 631 nm

## COc1c(CC(C)O)c2c3c(CC(C)O)c(OC)c(=O)c4c(O)cc5c(c6c(cc(O)c(c1=O)c62)OCO5)c43 (centres unmarked) [Cercosporin]
T98G
  LD50: 4 µM
U87MG; ref 28 (SI list)
  LD50: 4 µM
[1]; [3]
  Abs (nm): 473 nm

## Cc1ccnc(-c2cc(C)ccn2)c1.Cc1ccnc(-c2cc(C)ccn2)c1.[Cl-].[Cl-].[Ru+2].c1csc(-c2ccc(-c3ccc(-c4nc5c6cccnc6c6ncccc6c5[nH]4)s3)s2)c1 [TLD1433]
F98
  IC50: 2.81 µM
U87MG
  IC50: 0.051 µM
[1]; [3]
  Abs (nm): 416 nm

## [Zn+2].c1ccc2c(c1)-c1nc-2nc2[n-]c(nc3nc([n-]c4nc(n1)-c1ccccc1-4)-c1ccccc1-3)c1ccccc21 [ZnPc]
[1]; [3]
  Abs (nm): 645 nm
